Measurements: patent US20210386068A1, “COMPOSITIONS COMPRISING PYRIDINE CARBOXYLATE HERBICIDES AND VERY LONG CHAIN FATTY ACID (VLCFA) SYNTHESIS INHIBITOR HERBICIDES” (priority 2018, published 2021)

What was measured:
[1] = test system: Ipomoea hederacea (ivyleaf morningglory, IPOHE); experiment: Greenhouse postemergence herbicidal effect, visual injury 20-22 d after spraying, ivyleaf morningglory (IPOHE); assay type: in vivo; conditions: Flufenacet 60 g/ha alone
Source text: (§1) Seeds of the desired test plant species were planted in a 90:10% v/v (volume/volume) mixture of PRO-MIX® BX (Premier Tech Horticulture, Quakertown, Pa., USA) and PROFILE® GREENS GRADE™ (Profile Products LLC, Buffalo Grove, Ill., USA) planting mixture, which typically has a pH of 5.2 to 6.2 and an organic matter content of at least 50 percent, in plastic pots with a surface area of 103.2 square centimeters (cm^2). In some aspects, to ensure good germination and healthy plants, a fungicide treatment and/or other chemical or physical treatment was applied. The plants were grown for 7-36 days (d) in a greenhouse with an approximate 14-hour (h) photoperiod which was maintained at about 23° C. during the day and 22° C. during the night. Nutrients and water were added on a regular basis and supplemental lighting was provided with overhead metal halide 1000-Watt lamps as necessary. The plants were employed for testing when they reached the second or third true leaf stage.
(§2) Emulsifiable concentrates of each of each pyridine carboxylate herbicide (Compound A or Compound B) were prepared at 100 grams acid equivalent per liter (g ae/L). The emulsifiable concentrates also included a safener, cloquintocet-mexyl, at 120 grams active ingredient per liter (g ai/L). […]
(§3) The treated plants and control plants were placed in a greenhouse as described above and watered by sub-irrigation to prevent wash-off of the test compounds. After 20-22 d, the condition of the test plants as compared with that of the control plants was determined visually and scored on a scale of 0 to 100 percent where 0 corresponds to no injury and 100 corresponds to complete kill.

[2] = test system: Abutilon theophrasti (velvetleaf, ABUTH); experiment: Greenhouse postemergence herbicidal effect, visual injury 20-22 d after spraying, velvetleaf (ABUTH); assay type: in vivo; conditions: Flufenacet 60 g/ha alone
Source text: as §1, §2, §3

[3] = test system: Viola tricolor (wild pansy, VIOTR); experiment: Greenhouse postemergence herbicidal effect, visual injury 20-22 d after spraying, wild pansy (VIOTR); assay type: in vivo; conditions: for % visual injury VIOTR Obs: Anilofos or Pretilachlor 300 g/ha
Source text: as §1
(§4) Emulsifiable concentrates of each of each pyridine carboxylate herbicide (Compound A or Compound B) were prepared at 100 grams acid equivalent per liter (g ae/L). The emulsifiable concentrates also included a safener, cloquintocet-mexyl, at 120 grams active ingredient per liter (g ai/L). An aliquot of each emulsifiable concentrate was placed in a 25 mL glass vial and diluted with an aqueous mixture of 1.25% (v/v) ACTIROB® B esterified rapeseed oil (Bayer Crop Science, Research Triangle Park, N.C., USA) or MSO® Concentrate with LECI-TECH® methylated soybean oil (Loveland Products, Loveland, Colo., USA) to obtain concentrated stock solutions at the highest application rate for each herbicide, based upon a 12 milliliter (mL) application volume at a rate of 187 liters per hectare (L/ha). The concentrated stock solutions were further diluted with an aqueous mixture of 1.25% v/v ACTIROB® B or MSO® Concentrate with LECI-TECH® to obtain stock solutions at reduced application rates for each herbicide. Spray solutions of the herbicide combinations (Compound A or Compound B plus VLCFA synthesis inhibitor herbicide) were prepared by adding weighed amounts or aliquots of the VLCFA synthesis inhibitor herbicide to the stock solutions of Compound A or Compound B to form 12-mL spray solutions in two-way combinations.
(§5) The spray solutions were applied to the plant material with an overhead Mandel track sprayer equipped with 8002E nozzles calibrated to deliver 187 L/ha over an application area of 0.503 square meters (m^2) at a spray height of 18 inches ([…] (cm)) above the average plant canopy. Control plants were sprayed in the same manner with the solvent blank. All pyridine carboxylate herbicide (component a) application rates are given as “g ae/ha” and all VLCFA synthesis inhibitor herbicide (component b) application rates are given as “g ai/ha.”
as §3

[4] = test system: Helianthus annuus (common sunflower, HELAN); experiment: Greenhouse postemergence herbicidal effect, visual injury 20-22 d after spraying, common sunflower (HELAN); assay type: in vivo; conditions: Flufenacet 60 g/ha alone
Source text: as §1, §2, §3

[5] = test system: Amaranthus retroflexus (pigweed, AMARE); experiment: Greenhouse postemergence herbicidal effect, visual injury 20-22 d after spraying, pigweed (AMARE); assay type: in vivo; conditions: Flufenacet 60 g/ha alone
Source text: as §1, §4, §5, §3

[6] = test system: Cirsium arvense (Canadian thistle, CIRAR); experiment: Greenhouse postemergence herbicidal effect, visual injury 20-22 d after spraying, Canadian thistle (CIRAR); assay type: in vivo; conditions: for % visual injury CIRAR Obs: Anilofos or Pretilachlor 300 g/ha
Source text: as §1, §4, §5, §3

[7] = test system: Viola arvensis (field pansy, VIOAR); experiment: Greenhouse postemergence herbicidal effect, visual injury 20-22 d after spraying, field pansy (VIOAR); assay type: in vivo; conditions: Anilofos or Pretilachlor 300 g/ha
Source text: as §1, §4, §5, §3

[8] = test system: Salsola kali (Russian thistle, SASKR); experiment: Greenhouse postemergence herbicidal effect, visual injury 20-22 d after spraying, Russian thistle (SASKR); assay type: in vivo; conditions: Anilofos or Pretilachlor 300 g/ha
Source text: as §1, §4, §5, §3

[9] = test system: Capsella bursa-pastoris (shepherd's purse, CAPBP); experiment: Greenhouse postemergence herbicidal effect, visual injury 20-22 d after spraying, shepherd's purse (CAPBP); assay type: in vivo; conditions: Anilofos or Pretilachlor 300 g/ha
Source text: as §1, §4, §5, §3

[10] = test system: Veronica persica (Persian speedwell, VERPE); experiment: Greenhouse postemergence herbicidal effect, visual injury 20-22 d after spraying, Persian speedwell (VERPE); assay type: in vivo; conditions: Anilofos or Pretilachlor 300 g/ha
Source text: as §1, §4, §5, §3

[11] = test system: Sinapis arvensis (wild mustard, SINAR); experiment: Greenhouse postemergence herbicidal effect, visual injury 20-22 d after spraying, wild mustard (SINAR); assay type: in vivo; conditions: Anilofos or Pretilachlor 300 g/ha
Source text: as §1, §4, §5, §3

[12] = test system: Brassica napus (winter rape, BRSNW); experiment: Greenhouse postemergence herbicidal effect, visual injury 20-22 d after spraying, winter rape (BRSNW); assay type: in vivo; conditions: Anilofos or Pretilachlor 300 g/ha
Source text: as §1, §4, §5, §3

[13] = test system: Triticum aestivum (spring wheat, TRZAS); experiment: Greenhouse postemergence crop phytotoxicity, visual injury 20-22 d after spraying, spring wheat (TRZAS); assay type: in vivo; conditions: Anilofos or Pretilachlor 300 g/ha
Source text: as §1, §4, §5, §3

[14] = test system: Veronica hederifolia (ivy-leaved speedwell, VERHE); experiment: Greenhouse postemergence herbicidal effect, visual injury 20-22 d after spraying, ivy-leaved speedwell (VERHE); assay type: in vivo; conditions: Anilofos or Pretilachlor 300 g/ha
Source text: as §1, §4, §5, §3

[15] = test system: Cyanus segetum (cornflower, CENCY); experiment: Greenhouse postemergence herbicidal effect, visual injury 20-22 d after spraying, cornflower (CENCY); assay type: in vivo; conditions: Anilofos or Pretilachlor 300 g/ha
Source text: as §1, §4, §5, §3

[16] = test system: Hordeum vulgare (spring barley, HORVS); experiment: Greenhouse postemergence crop phytotoxicity, visual injury 20-22 d after spraying, spring barley (HORVS); assay type: in vivo; conditions: Anilofos or Pretilachlor 300 g/ha
Source text: as §1, §4, §5, §3

winter wheat (TRZAW) = experiment: Greenhouse postemergence crop phytotoxicity, visual injury 20-22 d after spraying, winter wheat (TRZAW); assay type: in vivo, Triticum aestivum; conditions: Anilofos or Pretilachlor 300 g/ha
Source text: as §1, §4, §5, §3

[17] = test system: Anthemis arvensis (corn chamomile, ANTAR); experiment: Greenhouse postemergence herbicidal effect, visual injury 20-22 d after spraying, corn chamomile (ANTAR); assay type: in vivo; conditions: Anilofos or Pretilachlor 300 g/ha
Source text: as §1, §4, §5, §3

[18] = test system: Matricaria chamomilla (wild chamomile, MATCH); experiment: Greenhouse postemergence herbicidal effect, visual injury 20-22 d after spraying, wild chamomile (MATCH); assay type: in vivo; conditions: Anilofos or Pretilachlor 300 g/ha
Source text: as §1, §4, §5, §3

winter barley (HORVW) = experiment: Greenhouse postemergence crop phytotoxicity, visual injury 20-22 d after spraying, winter barley (HORVW); assay type: in vivo, Hordeum vulgare; conditions: Anilofos or Pretilachlor 300 g/ha
Source text: as §1, §4, §5, §3

[19] = test system: Polygonum convolvulus (wild buckwheat, POLCO); experiment: Greenhouse postemergence herbicidal effect, visual injury 20-22 d after spraying, wild buckwheat (POLCO); assay type: in vivo; conditions: Anilofos or Pretilachlor 300 g/ha
Source text: as §1, §4, §5, §3

[20] = test system: Lamium purpureum (purple deadnettle, LAMPU); experiment: Greenhouse postemergence herbicidal effect, visual injury 20-22 d after spraying, purple deadnettle (LAMPU); assay type: in vivo; conditions: Anilofos or Pretilachlor 300 g/ha
Source text: as §1, §4, §5, §3

[21] = test system: Matricaria discoidea (pineapple weed, MATMT); experiment: Greenhouse postemergence herbicidal effect, visual injury 20-22 d after spraying, pineapple weed (MATMT); assay type: in vivo; conditions: Anilofos or Pretilachlor 300 g/ha
Source text: as §1, §4, §5, §3

[22] = test system: Kochia scoparia (kochia, KCHSC); experiment: Greenhouse postemergence herbicidal effect, visual injury 20-22 d after spraying, kochia (KCHSC); assay type: in vivo; conditions: Anilofos or Pretilachlor 300 g/ha
Source text: as §1, §4, §5, §3

[23] = test system: Stellaria media (common chickweed, STEME); experiment: Greenhouse postemergence herbicidal effect, visual injury 20-22 d after spraying, common chickweed (STEME); assay type: in vivo; conditions: Anilofos or Pretilachlor 300 g/ha
Source text: as §1, §4, §5, §3

[24] = test system: Matricaria inodora (scentless chamomile, MATIN); experiment: Greenhouse postemergence herbicidal effect, visual injury 20-22 d after spraying, scentless chamomile (MATIN); assay type: in vivo; conditions: Anilofos or Pretilachlor 300 g/ha
Source text: as §1, §4, §5, §3

[25] = test system: Papaver rhoeas (common poppy, PAPRH); experiment: Greenhouse postemergence herbicidal effect, visual injury 20-22 d after spraying, common poppy (PAPRH); assay type: in vivo; conditions: Anilofos or Pretilachlor 300 g/ha
Source text: as §1, §4, §5, §3

Row | SMILES | % visual injury VIOAR Obs [7] | % visual injury SASKR Obs [8] | % visual injury CAPBP Obs [9] | % visual injury SINAR Obs [11] | % visual injury BRSNW Obs [12] | % visual injury TRZAS Obs [13] | % visual injury VERHE Obs [14] | % visual injury CENCY Obs [15] | % visual injury HORVS Obs [16] | % visual injury TRZAW Obs (winter wheat (TRZAW)) | % visual injury ANTAR Obs [17] | % visual injury MATCH Obs [18] | % visual injury HORVW Obs (winter barley (HORVW)) | % visual injury POLCO Obs [19] | % visual injury LAMPU Obs [20] | % visual injury MATMT Obs [21] | % visual injury VIOTR Obs [3] | % visual injury KCHSC Obs [22] | % visual injury STEME Obs [23] | % visual injury MATIN Obs [24] | also measured
1 | CC(C)N(C(=O)COc1nnc(C(F)(F)F)s1)c1ccc(F)cc1 [Flufenacet, N-(4-fluorophenyl)-N-(1-methylethyl)-2-[[5-(trifluoromethyl)-1,3,4-thiadiazol-2-yl]oxy]acetamide] |  |  |  |  |  |  |  |  |  |  |  |  |  |  |  |  |  |  |  |  | % visual injury Obs [1]: 5%; % visual injury Obs [2]: 3%; % visual injury Obs ([3]; VIOTR, Flufenacet 60 g/ha alone): 0%; % visual injury Obs [4]: 15%; % visual injury Obs [5]: 5%; % visual injury Obs ([6]; CIRAR, Flufenacet 60 g/ha alone): 8%
2 | COP(=S)(OC)SCC(=O)N(c1ccc(Cl)cc1)C(C)C [Anilofos, S-[2-[(4-chlorophenyl)(1-methylethyl)amino]-2-oxoethyl] O,O-dimethyl phosphorodithioate] | 0% | 0% | 0% | 0% | 5% | 0% | 0% | 10% | 0% | 0% | 5% | 0% | 0% | 0% | 10% | 0% | 0% | 0% | 0% | 0% | % visual injury VERPE Obs [10]: 5%; % visual injury CIRAR Obs [6]: 0%; % visual injury PAPRH Obs [25]: 25%
3 | CCCOCCN(C(=O)CCl)c1c(CC)cccc1CC [Pretilachlor, 2-chloro-N-(2,6-diethylphenyl)-N-(2-propoxyethyl)acetamide] | 5% | 25% | 0% | 5% | 5% | 0% | 5% | 10% | 0% | 0% | 10% | 20% | 0% | 8% | 5% | 13% | 5% | 5% | 0% | 0% | % visual injury VERVE Obs [10]: 10%; % visual injury CIRAR Obs [6]: 5%; % visual injury PAPRH Obs [25]: 10%
